# From patent publication US20240269155A1, “METHODS AND USES OF BORON COMPOUNDS IN THE TREATMENT OF NONTUBERCULOUS MYCOBACTERIUM INFECTIONS AND PHARMACEUTICAL COMPOSITIONS FOR TREATMENT OF SAME” (priority 2022, published 2024)
# Like-named read-outs stand apart in the source and are kept apart here.
# What was measured:
# [1] = tested on: clinical isolates of M. abscessus complex; assay: MBC against clinical isolates of M. abscessus complex; assay type: cell-based, M. abscessus and M. massiliense; conditions: for Classification: from MBC/MIC ratio
# [2] = tested on: M. peregrinum; assay: MIC determination (CLSI M24-A2); assay type: cell-based, Mycobacterium peregrinum
# Experimental: (§1) The in vitro activity of the parent boron compound described herein was assessed by standard testing procedures such as the determination of minimum inhibitory concentration (MIC) as described in Clinical and Laboratory Standards Institute (CLSI) document M24-A2. Lower MIC values indicate high antibacterial activity, while higher MIC values indicate a reduced antibacterial activity. Generally, MIC values of about ≤2 mg/L indicate a good therapeutic (i.e., suitable for therapy) potency for antibacterial drugs, while MIC values of ≥8 mg/L indicate a lack of therapeutically useful activity for a test compound.
# (§2) (MIC ranges from 0.063-2 mg/L).
# [3] = tested on: M. abscessus; assay: MIC determination (CLSI M24-A2); assay type: cell-based, Mycobacterium abscessus; conditions: Mycobacteroides abscessus, read-out: MIC
# Experimental: as §1, §2
# [4] = tested on: M. gordonae; assay: MIC determination (CLSI M24-A2); assay type: cell-based, Mycobacterium gordonae; conditions: Mycobacterium gordonae, read-out: MIC
# Experimental: as §1, §2
# [5] = tested on: M. fortuitum; assay: MIC determination (CLSI M24-A2); assay type: cell-based, Mycobacterium fortuitum
# Experimental: as §1, §2
# [6] = tested on: M. avium; assay: MIC determination (CLSI M24-A2); assay type: cell-based, Mycobacterium avium; conditions: Mycobacterium avium, read-out: MIC
# Experimental: as §1, §2
# [7] = tested on: Mycobacteria pathogens; assay: MIC against mycobacteria pathogens, summary over species; assay type: cell-based, nontuberculous Mycobacterium; conditions: M. fortuitum, M. peregrinum, M. smegmatis
# [8] = tested on: M. massiliense; assay: MIC determination (CLSI M24-A2); assay type: cell-based, Mycobacterium massiliense; conditions: Mycobacteroides abscessus, read-out: MIC
# Experimental: as §1, §2
# [9] = tested on: clinical isolates of M. abscessus complex; assay: MIC against clinical isolates of M. abscessus complex; assay type: cell-based, M. abscessus and M. massiliense; conditions: Mycobacteroides abscessus, read-out: MIC
# [10] = tested on: M. smegmatis; assay: MIC determination (CLSI M24-A2); assay type: cell-based, Mycobacterium smegmatis
# Experimental: as §1, §2
# [11] = tested on: M. intercelleulare; assay: MIC determination (CLSI M24-A2); assay type: cell-based, Mycobacterium intercelleulare; conditions: Mycobacterium, read-out: MIC
# Experimental: as §1, §2
# [12] = tested on: M. scrofulaceum; assay: MIC determination (CLSI M24-A2); assay type: cell-based, Mycobacterium scrofulaceum; conditions: Mycobacterium scrofulaceum, read-out: MIC
# Experimental: as §1, §2
smiles,measurement,setting,value
"Cl.NC[C@H]1OB(O)c2c(OCCO)ccc(Cl)c21 [GSK656, reference compound]",bactericidal/bacteriostatic classification over the isolates,[1]; 20 clinical isolates of M. abscessus complex,bacteriostatic against all isolates
same,MBC,"[1]; Mycobacteroides abscessus, clinical isolate A35, read-out: MBC",> 2 µg/mL
same,MBC,"[1]; Mycobacteroides abscessus, clinical isolate A51, read-out: MBC",> 2 µg/mL
same,MBC,"[1]; Mycobacteroides abscessus, clinical isolate A197, read-out: MBC",> 2 µg/mL
same,MBC,"[1]; Mycobacteroides abscessus, clinical isolate A213, read-out: MBC",2 µg/mL
same,MBC,"[1]; Mycobacteroides abscessus, clinical isolate A215, read-out: MBC",2 µg/mL
same,MBC,"[1]; Mycobacteroides abscessus, clinical isolate A217, read-out: MBC",2 µg/mL
same,MBC,"[1]; Mycobacteroides abscessus, clinical isolate A255, read-out: MBC",2 µg/mL
same,MBC,"[1]; Mycobacteroides abscessus, clinical isolate A268, read-out: MBC",> 4 µg/mL
same,MBC,"[1]; Mycobacteroides abscessus, clinical isolate A274, read-out: MBC",> 4 µg/mL
same,MBC,"[1]; Mycobacteroides abscessus, clinical isolate A311, read-out: MBC",1 µg/mL
same,MBC,"[1]; Mycobacteroides abscessus, clinical isolate A353, read-out: MBC",2 µg/mL
same,MBC,"[1]; Mycobacteroides abscessus, clinical isolate G73, read-out: MBC",> 2 µg/mL
same,MBC,"[1]; Mycobacteroides abscessus, clinical isolate G74, read-out: MBC",> 4 µg/mL
same,MBC,"[1]; Mycobacteroides abscessus, clinical isolate G87, read-out: MBC",> 2 µg/mL
same,MBC,"[1]; Mycobacteroides abscessus, clinical isolate G104, read-out: MBC",2 µg/mL
same,MBC,"[1]; Mycobacteroides abscessus, clinical isolate G110, read-out: MBC",> 2 µg/mL
same,MBC,"[1]; Mycobacteroides abscessus, clinical isolate G164, read-out: MBC",> 2 µg/mL
same,MBC,"[1]; Mycobacteroides abscessus, clinical isolate G182, read-out: MBC",> 2 µg/mL
same,Classification,[1]; clinical isolate A35,Bacteriostatic (bacteriostatic if the ratio was >4)
same,Classification,[1]; clinical isolate A51,Bacteriostatic (bacteriostatic if the ratio was >4)
same,Classification,[1]; clinical isolate A197,Bacteriostatic (bacteriostatic if the ratio was >4)
same,Classification,[1]; clinical isolate A213,Bacteriostatic (bacteriostatic if the ratio was >4)
same,Classification,[1]; clinical isolate A215,Bacteriostatic (bacteriostatic if the ratio was >4)
same,Classification,[1]; clinical isolate A217,Bacteriostatic (bacteriostatic if the ratio was >4)
same,MBC,[1]; clinical isolate A222,>>
same,Classification,[1]; clinical isolate A222,Bacteriostatic (bacteriostatic if the ratio was >4)
same,Classification,[1]; clinical isolate A232,Bacteriostatic (bacteriostatic if the ratio was >4)
same,Classification,[1]; clinical isolate A255,Bacteriostatic (bacteriostatic if the ratio was >4)
same,Classification,[1]; clinical isolate A268,Bacteriostatic (bacteriostatic if the ratio was >4)
same,Classification,[1]; clinical isolate A274,Bacteriostatic (bacteriostatic if the ratio was >4)
same,Classification,[1]; clinical isolate A311,Bacteriostatic (bacteriostatic if the ratio was >4)
same,Classification,[1]; clinical isolate A353,Bacteriostatic (bacteriostatic if the ratio was >4)
same,Classification,[1]; clinical isolate G73,Bacteriostatic (bacteriostatic if the ratio was >4)
same,Classification,[1]; clinical isolate G74,Bacteriostatic (bacteriostatic if the ratio was >4)
same,Classification,[1]; clinical isolate G87,Bacteriostatic (bacteriostatic if the ratio was >4)
same,Classification,[1]; clinical isolate G104,Bacteriostatic (bacteriostatic if the ratio was >4)
same,Classification,[1]; clinical isolate G110,Bacteriostatic (bacteriostatic if the ratio was >4)
same,Classification,[1]; clinical isolate G164,Bacteriostatic (bacteriostatic if the ratio was >4)
same,Classification,[1]; clinical isolate G182,Bacteriostatic (bacteriostatic if the ratio was >4)
same,MIC,[2],8 µg/mL
same,MIC,"[2]; Mycolicibacterium peregrinum, read-out: MIC",≥ 8 µg/mL
same,MIC,[3],0.063 µg/mL
same,MIC,[4],0.5 µg/mL
same,MIC,[5],>8 µg/mL
same,MIC,"[5]; Mycolicibacterium fortuitum, read-out: MIC",≥ 8 µg/mL
same,MIC,[6],> 8 µg/mL
same,fold less active than Example 4 (MIC),[7],more than 64 fold
same,MIC,[8],0.063 µg/mL
same,MIC,[9]; clinical isolate A35,0.063 µg/mL
same,MIC,[9]; clinical isolate A51,0.063 µg/mL
same,MIC,[9]; clinical isolate A197,0.063 µg/mL
same,MIC,[9]; clinical isolate A213,0.063 µg/mL
same,MIC,[9]; clinical isolate A215,0.063 µg/mL
same,MIC,[9]; clinical isolate A217,0.063 µg/mL
same,MIC,[9]; clinical isolate A222,0.063 µg/mL
same,MIC,[9]; clinical isolate A255,0.063 µg/mL
same,MIC,[9]; clinical isolate A268,0.125 µg/mL
same,MIC,[9]; clinical isolate A274,0.125 µg/mL
same,MIC,[9]; clinical isolate A311,0.063 µg/mL
same,MIC,[9]; clinical isolate A353,0.125 µg/mL
same,MIC,[9]; clinical isolate G73,0.063 µg/mL
same,MIC,[9]; clinical isolate G74,0.063 µg/mL
same,MIC,[9]; clinical isolate G87,0.063 µg/mL
same,MIC,[9]; clinical isolate G104,0.063 µg/mL
same,MIC,[9]; clinical isolate G110,0.063 µg/mL
same,MIC,[9]; clinical isolate G164,0.063 µg/mL
same,MIC,[9]; clinical isolate G182,0.063 µg/mL
same,MIC,[10],>8 µg/mL
same,MIC,"[10]; Mycolicibacterium smegmatis, read-out: MIC",≥ 8 µg/mL
same,MIC,[11],> 8 µg/mL
same,MIC,[12],4 µg/mL
